Laboratory results taken from PubChem BioAssay AID1259407 (Chemical Carcinogenesis Research Information System (CCRIS), 2018).
Activity calls are given as the source filed them. How the calls were made is not given here.

Tested on: CCRIS mutagenicity, Ames/micronucleus/aberration tests
Assay: CCRIS mutagenicity studies
[1] = Test System: AMES SALMONELLA TYPHIMURIUM, Strain/Indicator: TA98, Metabolic Activation: NONE, Method: PREINCUBATION
[2] = Test System: AMES SALMONELLA TYPHIMURIUM, Strain/Indicator: TA100, Metabolic Activation: NONE, Method: PREINCUBATION
[3] = Test System: AMES SALMONELLA TYPHIMURIUM, Strain/Indicator: TA1535, Metabolic Activation: NONE, Method: PREINCUBATION

Measured: mutagenic call

CC(=O)N(O)c1ccc(-c2ccccc2)cc1
active: Test System: AMES SALMONELLA TYPHIMURIUM, Strain/Indicator: TA98(1,8-DNP6), Metabolic Activation: RAT, LIVER, S-9, AROCLOR, Method: PREINCUBATION active; positive | Test System: AMES SALMONELLA TYPHIMURIUM, Strain/Indicator: TA98, Metabolic Activation: DOG, BLADDER, MICROSOMES, Method: PREINCUBATION active; positive | Test System: AMES SALMONELLA TYPHIMURIUM, Strain/Indicator: TA98, Metabolic Activation: DOG, LIVER, MICROSOMES, Method: PREINCUBATION active; positive | Test System: AMES SALMONELLA TYPHIMURIUM, Strain/Indicator: TA98, Metabolic Activation: HUMAN, UROEPITHELIAL CELL, CYTOSOL, Method: PREINCUBATION active; positive | Test System: AMES SALMONELLA TYPHIMURIUM, Strain/Indicator: TA98, Metabolic Activation: HUMAN, UROEPITHELIAL CELL, MICROSOMES, Method: PREINCUBATION active; positive | Test System: AMES SALMONELLA TYPHIMURIUM, Strain/Indicator: TA98, Metabolic Activation: HUMAN, UROEPITHELIAL CELL, S-9, Method: PREINCUBATION active; positive | Test System: AMES SALMONELLA TYPHIMURIUM, Strain/Indicator: TA98, Metabolic Activation: RAT, LIVER, CYTOSOL, Method: PREINCUBATION active; positive | Test System: AMES SALMONELLA TYPHIMURIUM, Strain/Indicator: TA98, Metabolic Activation: RAT, LIVER, MICROSOMES, Method: PREINCUBATION active; positive | Test System: AMES SALMONELLA TYPHIMURIUM, Strain/Indicator: TA98, Metabolic Activation: RAT, LIVER, S-9, AROCLOR, Method: PREINCUBATION active; positive | Test System: AMES SALMONELLA TYPHIMURIUM, Strain/Indicator: YG1024, Metabolic Activation: HUMAN, UROEPITHELIAL CELL, MICROSOMES, Method: PREINCUBATION active; positive | Test System: UDS HUMAN FIBROBLASTS, Strain/Indicator: THY INCORP (NON-S-PHASE), Metabolic Activation: NONE, Method: AUTORADIOGRAPHY active; positive
inactive: Test System: AMES SALMONELLA TYPHIMURIUM, Strain/Indicator: TA98(1,8-DNP6), Metabolic Activation: HUMAN, UROEPITHELIAL CELL, MICROSOMES, Method: PREINCUBATION inactive; negative | Test System: AMES SALMONELLA TYPHIMURIUM, Strain/Indicator: TA98(1,8-DNP6), Metabolic Activation: NONE, Method: PREINCUBATION inactive; negative | [1] inactive; negative | Test System: AMES SALMONELLA TYPHIMURIUM, Strain/Indicator: TA98, Metabolic Activation: RAT, BLADDER, MICROSOMES, Method: PREINCUBATION inactive; negative

CCN(O)CC
active: Test System: UDS HUMAN LYMPHOCYTES, Strain/Indicator: THY INCORP (NON-S-PHASE), Metabolic Activation: NONE, Method: LIQUID SCINTILLATION COUNTING active; positive

COC(=O)c1cc2c(c3c1ccc1c(OC)cccc13)OCO2
active: Test System: AMES SALMONELLA TYPHIMURIUM, Strain/Indicator: TA98, Metabolic Activation: NONE, Method: STANDARD PLATE active; positive | Test System: AMES SALMONELLA TYPHIMURIUM, Strain/Indicator: TA100, Metabolic Activation: NONE, Method: STANDARD PLATE active; positive | Test System: AMES SALMONELLA TYPHIMURIUM, Strain/Indicator: TA102, Metabolic Activation: NONE, Method: STANDARD PLATE active; positive | Test System: AMES SALMONELLA TYPHIMURIUM, Strain/Indicator: TA1537, Metabolic Activation: NONE, Method: STANDARD PLATE active; positive
inactive: Test System: AMES SALMONELLA TYPHIMURIUM, Strain/Indicator: TM677/8-AZAGUANINE, Metabolic Activation: NONE, Method: SUSPENSION/PLATE inactive; negative

CC[C@@H](C)[C@@H](N)C(=O)OC
inactive: End Point: IN VIVO MICRONUCLEUS, Test System: BONE MARROW POLYCHROMATIC ERYTHROCYTES, Species: MOUSE, Strain/Sex: DDY/MALE, Route: IP inactive; negative

CC(=O)Nc1ccccc1
inactive: Test System: AMES SALMONELLA TYPHIMURIUM, Strain/Indicator: TA97, Metabolic Activation: HAMSTER, LIVER, S-9, AROCLOR 1254 (10 OR 30%), Method: PREINCUBATION inactive; negative | Test System: AMES SALMONELLA TYPHIMURIUM, Strain/Indicator: TA97, Metabolic Activation: NONE, Method: PREINCUBATION inactive; negative | Test System: AMES SALMONELLA TYPHIMURIUM, Strain/Indicator: TA97, Metabolic Activation: RAT, LIVER, S-9, AROCLOR 1254 (10 OR 30%), Method: PREINCUBATION inactive; negative | Test System: AMES SALMONELLA TYPHIMURIUM, Strain/Indicator: TA98, Metabolic Activation: GUINEA PIG, LIVER, S-9, PCB, Method: PREINCUBATION inactive; negative | Test System: AMES SALMONELLA TYPHIMURIUM, Strain/Indicator: TA98, Metabolic Activation: HAMSTER, LIVER, S-9, AROCLOR 1254 (10 OR 30%), Method: PREINCUBATION inactive; negative | Test System: AMES SALMONELLA TYPHIMURIUM, Strain/Indicator: TA98, Metabolic Activation: HAMSTER, LIVER, S-9, PCB, Method: PREINCUBATION inactive; negative | Test System: AMES SALMONELLA TYPHIMURIUM, Strain/Indicator: TA98, Metabolic Activation: MOUSE, LIVER, S-9, PCB, Method: PREINCUBATION inactive; negative | [1] inactive; negative | Test System: AMES SALMONELLA TYPHIMURIUM, Strain/Indicator: TA98, Metabolic Activation: RAT, LIVER, S-9, AROCLOR 1254 (10 OR 30%), Method: PREINCUBATION inactive; negative | Test System: AMES SALMONELLA TYPHIMURIUM, Strain/Indicator: TA98, Metabolic Activation: RAT, LIVER, S-9, PCB, Method: PREINCUBATION inactive; negative | Test System: AMES SALMONELLA TYPHIMURIUM, Strain/Indicator: TA100, Metabolic Activation: GUINEA PIG, LIVER, S-9, PCB, Method: PREINCUBATION inactive; negative | Test System: AMES SALMONELLA TYPHIMURIUM, Strain/Indicator: TA100, Metabolic Activation: HAMSTER, LIVER, S-9, AROCLOR 1254 (10 OR 30%), Method: PREINCUBATION inactive; negative | Test System: AMES SALMONELLA TYPHIMURIUM, Strain/Indicator: TA100, Metabolic Activation: HAMSTER, LIVER, S-9, PCB, Method: PREINCUBATION inactive; negative | Test System: AMES SALMONELLA TYPHIMURIUM, Strain/Indicator: TA100, Metabolic Activation: MOUSE, LIVER, S-9, PCB, Method: PREINCUBATION inactive; negative | [2] inactive; negative | Test System: AMES SALMONELLA TYPHIMURIUM, Strain/Indicator: TA100, Metabolic Activation: RAT, LIVER, S-9, AROCLOR 1254 (10 OR 30%), Method: PREINCUBATION inactive; negative | Test System: AMES SALMONELLA TYPHIMURIUM, Strain/Indicator: TA100, Metabolic Activation: RAT, LIVER, S-9, PCB, Method: PREINCUBATION inactive; negative | Test System: AMES SALMONELLA TYPHIMURIUM, Strain/Indicator: TA1535, Metabolic Activation: HAMSTER, LIVER, S-9, AROCLOR 1254 (10 OR 30%), Method: PREINCUBATION inactive; negative | [3] inactive; negative | Test System: AMES SALMONELLA TYPHIMURIUM, Strain/Indicator: TA1535, Metabolic Activation: RAT, LIVER, S-9, AROCLOR 1254 (10 OR 30%), Method: PREINCUBATION inactive; negative

CCCNCCC
inactive: Test System: AMES SALMONELLA TYPHIMURIUM, Strain/Indicator: TA98, Metabolic Activation: HAMSTER, LIVER, S-9, AROCLOR 1254 (10%), Method: PREINCUBATION inactive; negative | [1] inactive; negative | Test System: AMES SALMONELLA TYPHIMURIUM, Strain/Indicator: TA98, Metabolic Activation: RAT, LIVER, S-9, AROCLOR 1254 (10%), Method: PREINCUBATION inactive; negative | Test System: AMES SALMONELLA TYPHIMURIUM, Strain/Indicator: TA100, Metabolic Activation: HAMSTER, LIVER, S-9, AROCLOR 1254 (10%), Method: PREINCUBATION inactive; negative | [2] inactive; negative | Test System: AMES SALMONELLA TYPHIMURIUM, Strain/Indicator: TA100, Metabolic Activation: RAT, LIVER, S-9, AROCLOR 1254 (10%), Method: PREINCUBATION inactive; negative | Test System: AMES SALMONELLA TYPHIMURIUM, Strain/Indicator: TA1535, Metabolic Activation: HAMSTER, LIVER, S-9, AROCLOR 1254 (10%), Method: PREINCUBATION inactive; negative | [3] inactive; negative | Test System: AMES SALMONELLA TYPHIMURIUM, Strain/Indicator: TA1535, Metabolic Activation: RAT, LIVER, S-9, AROCLOR 1254 (10%), Method: PREINCUBATION inactive; negative | Test System: AMES SALMONELLA TYPHIMURIUM, Strain/Indicator: TA1537, Metabolic Activation: HAMSTER, LIVER, S-9, AROCLOR 1254 (10%), Method: PREINCUBATION inactive; negative | Test System: AMES SALMONELLA TYPHIMURIUM, Strain/Indicator: TA1537, Metabolic Activation: NONE, Method: PREINCUBATION inactive; negative | Test System: AMES SALMONELLA TYPHIMURIUM, Strain/Indicator: TA1537, Metabolic Activation: RAT, LIVER, S-9, AROCLOR 1254 (10%), Method: PREINCUBATION inactive; negative
